Measurements as given in PubChem BioAssay AID248 (DTP/NCI, 2004).
“And” between values parts separate entries of the source, which are not always exact repeats. Identical values can stand only once. Inconclusive results and toxic doses are left out. Cut-off read from the data, not from the text of the source: active = T/C of 150% or more; inactive = T/C below 125%.

Test system: L1210 leukemia ip in BDF1 mice, survival T/C
Assay: NCI In Vivo Anticancer Drug Screen. Data for tumor model L1210 Leukemia (intraperitoneal) in B6D2F1 (BDF1) mice
Conditions: endpoint: mean survival time, higher = longer survival
Outline: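 Read-out is survival time, reported as the treated-group measurement over the vehicle-control measurement.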

[1] = dose: 25.0 mg/kg/injection, schedule: Q04DX003 (ip), vehicle: Klucel (hydroxypropylcellulose) (HPC)
[2] = dose: 50.0 mg/kg/injection, schedule: Q04DX003 (ip), vehicle: Klucel (hydroxypropylcellulose) (HPC)
[3] = dose: 100.0 mg/kg/injection, schedule: Q04DX003 (ip), vehicle: Klucel (hydroxypropylcellulose) (HPC)
[4] = dose: 100.0 mg/kg/injection, schedule: Q01DX009 (ip), vehicle: Klucel (hydroxypropylcellulose) (HPC)
[5] = dose: 100.0 mg/kg/injection, schedule: Q04DX003 (ip), vehicle: saline with Tween-80
[6] = dose: 200.0 mg/kg/injection, schedule: Q01DX009 (ip), vehicle: Klucel (hydroxypropylcellulose) (HPC)
[7] = dose: 200.0 mg/kg/injection, schedule: Q04DX003 (ip), vehicle: saline with Tween-80
[8] = dose: 200.0 mg/kg/injection, schedule: Q04DX003 (ip), vehicle: Klucel (hydroxypropylcellulose) (HPC)
[9] = dose: 400.0 mg/kg/injection, schedule: Q01DX009 (ip), vehicle: Klucel (hydroxypropylcellulose) (HPC)
[10] = dose: 400.0 mg/kg/injection, schedule: Q04DX003 (ip), vehicle: Klucel (hydroxypropylcellulose) (HPC)
[11] = dose: 100.0 mg/kg/injection, schedule: Q01DX001 (ip), vehicle: saline
[12] = dose: 200.0 mg/kg/injection, schedule: Q01DX001 (ip), vehicle: saline
[13] = dose: 400.0 mg/kg/injection, schedule: Q01DX001 (ip), vehicle: saline
[14] = dose: 100.0 mg/kg/injection, schedule: Q01DX009 (ip), vehicle: saline
[15] = dose: 100.0 mg/kg/injection, schedule: Q01DX009 (ip), vehicle: saline with Tween-80
[16] = dose: 200.0 mg/kg/injection, schedule: Q01DX009 (ip), vehicle: saline with Tween-80
[17] = dose: 100.0 mg/kg/injection, schedule: Q04DX002 (ip), vehicle: Klucel (hydroxypropylcellulose) (HPC)
[18] = dose: 100.0 mg/kg/injection, schedule: Q04DX003 (ip), vehicle: saline
[19] = dose: 200.0 mg/kg/injection, schedule: Q04DX003 (ip), vehicle: saline
[20] = dose: 400.0 mg/kg/injection, schedule: Q04DX003 (ip), vehicle: saline
[21] = dose: 200.0 mg/kg/injection, schedule: Q04DX002 (ip), vehicle: Klucel (hydroxypropylcellulose) (HPC)
[22] = dose: 400.0 mg/kg/injection, schedule: Q04DX002 (ip), vehicle: Klucel (hydroxypropylcellulose) (HPC)

Measured: T/C

Cc1ccc2[nH]c3c(c2c1)C[P+](Cc1cccc2ccccc12)(c1ccccc1)CC3 (stereo not given)
inactive: dose: 25.0 mg/kg/injection, schedule: Q01DX001 (ip), vehicle: Klucel (hydroxypropylcellulose) (HPC) 87 % of control | [1] 91 % of control | dose: 50.0 mg/kg/injection, schedule: Q01DX001 (ip), vehicle: Klucel (hydroxypropylcellulose) (HPC) 92 % of control | [2] 105 % of control | dose: 100.0 mg/kg/injection, schedule: Q01DX001 (ip), vehicle: Klucel (hydroxypropylcellulose) (HPC) 112 % of control and 86 % of control | [3] 99 % of control | dose: 200.0 mg/kg/injection, schedule: Q01DX001 (ip), vehicle: Klucel (hydroxypropylcellulose) (HPC) 95 % of control

O=C1/C(=C/c2cccnc2)CCc2ccccc21
inactive: dose: 25.0 mg/kg/injection, schedule: Q01DX009 (ip), vehicle: Klucel (hydroxypropylcellulose) (HPC) 98 % of control | dose: 50.0 mg/kg/injection, schedule: Q01DX009 (ip), vehicle: Klucel (hydroxypropylcellulose) (HPC) 106 % of control | [4] 97 % of control | [5] 104 % of control | [6] 112 % of control | [7] 97 % of control

ClCCCNCc1ccc(-c2c3ccccc3cc3c2ccc2ccccc23)cc1
inactive: dose: 100.0 mg/kg/injection, schedule: Q01DX001 (ip), vehicle: carboxymethylcellulose (CMC) 95 % of control | dose: 200.0 mg/kg/injection, schedule: Q01DX001 (ip), vehicle: carboxymethylcellulose (CMC) 101 % of control

c1ccc(C2=C(c3ccccc3)NC(c3ccccc3)N2)cc1
inactive: dose: 12.5 mg/kg/injection, schedule: Q04DX003 (ip), vehicle: Klucel (hydroxypropylcellulose) (HPC) 102 % of control | [1] 100 % of control | [2] 98 % of control | [3] 96 % of control

COC(=O)C1CCCC23CC(CC12)C(C)(C)C3Br (stereo not given)
inactive: [4] 94 % of control | [3] 97 % of control | [6] 97 % of control | [8] 90 % of control | [9] 90 % of control | [10] 97 % of control

O=P1(c2ccccc2)CCc2[nH]c3ccc(Cl)cc3c2C1 (stereo not given)
inactive: [3] 100 % of control | [8] 107 % of control | [10] 112 % of control

CSCc1ccccn1
inactive: dose: 50.0 mg/kg/injection, schedule: Q01DX001 (ip), vehicle: saline 106 % of control | [11] 101 % of control | [12] 93 % of control | [13] 104 % of control

Cn1c(CC(O)(C(F)(F)F)C(F)(F)F)cc2ccccc21
inactive: dose: 100.0 mg/kg/injection, schedule: Q01DX009 (ip), vehicle: other 95 % of control | dose: 200.0 mg/kg/injection, schedule: Q01DX009 (ip), vehicle: other 95 % of control | dose: 400.0 mg/kg/injection, schedule: Q01DX009 (ip), vehicle: other 93 % of control

CCCOC(=O)c1ccc(O)cc1
inactive: [4] 87 % of control | [6] 94 % of control | [9] 102 % of control

O=[N+]([O-])c1cccc(S(=O)(=O)Nc2cccc(C(F)(F)F)c2)c1
inactive: [14] 96 % of control | dose: 200.0 mg/kg/injection, schedule: Q01DX009 (ip), vehicle: saline 104 % of control | dose: 400.0 mg/kg/injection, schedule: Q01DX009 (ip), vehicle: saline 96 % of control

Oc1cc(O)c2c(c1)OC(c1ccc(O)c(O)c1)C(OC1(c3cc(O)c(O)c(O)c3)Oc3cc(O)cc(O)c3C(O)C1O)C2 (stereo not given)
inactive: [15] 95 % of control | [16] 97 % of control

COC(=O)/C=C/C(=O)OC
inactive: dose: 25.0 mg/kg/injection, schedule: Q04DX002 (ip), vehicle: Klucel (hydroxypropylcellulose) (HPC) 97 % of control | dose: 50.0 mg/kg/injection, schedule: Q04DX002 (ip), vehicle: Klucel (hydroxypropylcellulose) (HPC) 100 % of control | [17] 103 % of control | [3] 104 % of control | [18] 101 % of control | [8] 101 % of control | [19] 107 % of control | [10] 112 % of control | [20] 103 % of control

COC(=O)C(Nc1ccc([N+](=O)[O-])cc1[N+](=O)[O-])C(O)c1ccccc1 (stereo not given)
inactive: [11] 98 % of control | [12] 111 % of control | [13] 93 % of control

ClCCCCC(Cl)(Cl)Cl
inactive: dose: 75.0 mg/kg/injection, schedule: Q01DX009 (ip), vehicle: saline 93 % of control | [18] 102 % of control | dose: 150.0 mg/kg/injection, schedule: Q01DX009 (ip), vehicle: saline 91 % of control | [19] 98 % of control | dose: 300.0 mg/kg/injection, schedule: Q01DX009 (ip), vehicle: saline 90 % of control | [20] 108 % of control

NC(=O)c1ccccc1Cl
inactive: dose: 100.0 mg/kg/injection, schedule: Q01DX001 (ip), vehicle: saline with Tween-80 104 % of control | dose: 100.0 mg/kg/injection, schedule: Q01DX009 (ip), vehicle: saline sonified 105 % of control | dose: 200.0 mg/kg/injection, schedule: Q01DX001 (ip), vehicle: saline with Tween-80 102 % of control | dose: 200.0 mg/kg/injection, schedule: Q01DX009 (ip), vehicle: saline sonified 89 % of control | dose: 400.0 mg/kg/injection, schedule: Q01DX001 (ip), vehicle: saline with Tween-80 101 % of control | dose: 400.0 mg/kg/injection, schedule: Q01DX009 (ip), vehicle: saline sonified 100 % of control

N=c1c2ccccc2nnn1-c1ccccc1[N+](=O)[O-]
inactive: dose: 75.0 mg/kg/injection, schedule: Q01DX001 (ip), vehicle: other 92 % of control | dose: 150.0 mg/kg/injection, schedule: Q01DX001 (ip), vehicle: other 99 % of control | dose: 300.0 mg/kg/injection, schedule: Q01DX001 (ip), vehicle: other 92 % of control

C=CCc1cccc(CC=C)c1OCCN(CC)CC
inactive: dose: 25.0 mg/kg/injection, schedule: Q01DX009 (ip), vehicle: saline 98 % of control | dose: 50.0 mg/kg/injection, schedule: Q01DX009 (ip), vehicle: saline 105 % of control | [14] 95 % of control and 107 % of control

O=[N+]([O-])c1ccc(O)c(C=NCC2CCCC[N-]2)c1.O=[N+]([O-])c1ccc(O)c(C=NCC2CCCC[N-]2)c1.[Ni+2] (stereo not given)
inactive: [5] 90 % of control | [7] 90 % of control

CC(C)(C)OC(=O)NNC(=O)C(CSC(c1ccccc1)c1ccccc1)N1C(=O)c2ccccc2C1=O (stereo not given)
inactive: [4] 101 % of control | [3] 90 % of control | [6] 94 % of control | [8] 94 % of control | [9] 101 % of control | [10] 99 % of control

O=C1NC(=S)N/C1=C/c1ccc2c(c1)CCC2
inactive: [15] 112 % of control | [5] 95 % of control | [16] 94 % of control | [7] 101 % of control | dose: 400.0 mg/kg/injection, schedule: Q01DX009 (ip), vehicle: saline with Tween-80 102 % of control | dose: 400.0 mg/kg/injection, schedule: Q04DX003 (ip), vehicle: saline with Tween-80 87 % of control

O=C(NC1CCCCC1)Oc1ccc(Cl)cc1Cl
inactive: [17] 93 % of control | [21] 96 % of control | [22] 93 % of control

Cc1ccc2c(Cl)ccc(Cl)c2n1
inactive: [17] 90 % of control | dose: 100.0 mg/kg/injection, schedule: Q04DX002 (ip), vehicle: carboxymethylcellulose (CMC) 98 % of control and 90 % of control | dose: 100.0 mg/kg/injection, schedule: Q04DX003 (ip), vehicle: carboxymethylcellulose (CMC) 95 % of control | [21] 90 % of control | dose: 200.0 mg/kg/injection, schedule: Q04DX002 (ip), vehicle: carboxymethylcellulose (CMC) 94 % of control and 91 % of control | dose: 200.0 mg/kg/injection, schedule: Q04DX003 (ip), vehicle: carboxymethylcellulose (CMC) 104 % of control | [22] 105 % of control | dose: 400.0 mg/kg/injection, schedule: Q04DX002 (ip), vehicle: carboxymethylcellulose (CMC) 92 % of control

O=C1OI(Cl)c2ccccc21
inactive: [17] 88 % of control | [21] 120 % of control

O=C(O)c1c(Cl)c(Cl)c(Cl)c(Cl)c1C(=O)Nc1cccc(C(F)(F)F)c1
inactive: [4] 100 % of control | [3] 94 % of control | [6] 97 % of control | [8] 100 % of control | [10] 105 % of control
